Results published in ChEMBL document CHEMBL5528041, “Ferroptosis-Based Therapeutic Strategies toward Precision Medicine for Cancer” (J Med Chem, 2024).
In brackets after ≈: the same amount, converted by molar mass.

Assays:
HT-29 [1] = experiment: Antiproliferative activity against human HT-29 cells assessed as inhibition of cell growth measured after 48 hrs by SRB assay; assay type: functional, cell-based; settings: HT-29, 48 h
[2] = Antiproliferative activity against human CRC cells assessed as reduction in cell viability incubated for 48 hrs by MTT assay; assay type: functional, cell-based
HCT-116 [3] = experiment: Antiproliferative activity against human HCT-116 cells assessed as reduction in cell growth incubated for 48 hrs by MTT assay; assay type: functional, cell-based; settings: HCT-116, 48 h
HT-29 [4] = experiment: Antiproliferative activity against human HT-29 cells assessed as reduction in cell viability measured after 48 hrs by WST-1 assay; assay type: functional, cell-based; settings: HT-29, 48 h
HCT-116 [5] = experiment: Antiproliferative activity against human HCT-116 cells assessed as reduction in cell viability incubated for 48 hrs by WST-1 assay; assay type: functional, cell-based; settings: HCT-116, 48 h
MDA-MB-231 = experiment: Antiproliferative activity against human MDA-MB-231 cells assessed as inhibition of cell viability measured after 72 hrs by MTT assay; assay type: functional, cell-based; settings: MDA-MB-231, 72 h
PANC-1 = experiment: Antiproliferative activity against human PANC-1 cells assessed as reduction in cell viability incubated for 48 hrs by resazurin dye based cell titer-blue viability assay; assay type: functional; settings: PANC-1, 48 h
Panc1005 = experiment: Antiproliferative activity against human Panc1005 cells assessed as reduction in cell growth incubated for 72 hrs by Cell titer-Glo luminescent cell viability assay; assay type: functional, cell-based; settings: Panc1005, 72 h
ASPC1 = experiment: Cytotoxicity against human ASPC1 cells assessed as inhibition of cell growth by SRB assay; assay type: functional, cell-based
BXPC-3 = experiment: Antiproliferative activity against human BXPC-3 cells assessed as inhibition of cell proliferation treated for 72 hrs by resazurin dye-based fluorescence assay; assay type: functional; settings: BXPC-3, 72 h
Huh-7 = experiment: Cytotoxicity against human Huh-7 cells assessed as reduction in cell viability incubated for 72 hrs by MTT assay; assay type: functional, cell-based; settings: Huh-7, 72 h
[6] = Antiproliferative activity against human HCCM-5 cells assessed as reduction in cell viability measured after 72 hrs by MTT assay; assay type: functional, cell-based; settings: HCCM-5, 72 h
[7] = Cytotoxicity against mouse Hepa-1 cells assessed as reduction in cell viability incubated for 24 hrs by MTS assay; assay type: functional, cell-based; settings: Hepa-1, 24 h
MC-38 = experiment: Cytotoxicity against mouse MC-38 cells assessed as reduction in cell viability incubated for 24 hrs by MTS assay; assay type: functional, cell-based; settings: MC-38, 24 h
Hepa 1-6 = experiment: Cytotoxicity against mouse Hepa1-6 cells assessed as inhibition of cell growth incubated for 24 hrs by MTT assay; assay type: functional, cell-based; settings: Hepa1-6, 24 h
ID8 = experiment: Cytotoxicity against mouse ID8 cells assessed as inhibition of cell viability measured after 24 hrs by MTT assay; assay type: functional, cell-based; settings: ID8, 24 h
B16 = experiment: Cytotoxicity against mouse B16 cells assessed as inhibition of cell viability measured after 24 hrs by MTT assay; assay type: functional, cell-based; settings: B16, 24 h

CC(C)=CC/C=C(\C)[C@H]1CC[C@]2(C)[C@@H]1[C@H](O)C[C@@H]1[C@@]3(C)CC[C@H](O)C(C)(C)[C@@H]3[C@@H](O[C@@H]3O[C@H](CO)[C@@H](O)[C@H](O)[C@H]3O)C[C@]12C [GINSENOSIDE RH4]
IC50 (HT-29 [1]): 197 µM
IC50 [2]: 197 µM
IC50 (HCT-116 [3]): 178 µM

C=C1CC[C@@H]2[C@](C)(CO)[C@H](O)CC[C@@]2(C)[C@@H]1C/C=C1/C(=O)OC[C@H]1O [ANDROGRAPHOLIDE]
IC50 (HT-29 [4]): 10 µg/mL (≈ 28.5 µM)
IC50 (HCT-116 [5]): 19 µg/mL (≈ 54.2 µM)

N#Cc1ccc(C(=O)/C=C/c2ccccc2Oc2ccccc2C=O)cc1
IC50 (MDA-MB-231): 10.6 µM

Oc1c([C@@H](Nc2ccccn2)c2cccc(Cl)c2Cl)ccc2cccnc12
IC50 (PANC-1): 0.59 µM
IC50 (Panc1005): 0.59 µM
IC50 (ASPC1): 0.59 µM
IC50 (BXPC-3): 0.59 µM

C/C=C/C#CC#C/C=C/c1ccco1
IC50 (Huh-7): 22.4 µM
IC50 [6]: 59.7 µM

CCOc1ccccc1-n1c(C(C)N2CCN(C(=O)COc3ccc(Cl)cc3)CC2)nc2ccccc2c1=O (configuration not stated) [ERASTIN]
IC50 [7]: 0.5 µM
IC50 (MC-38): 0.5 µM
IC50 (Hepa 1-6): 0.5 µM
IC50 (ID8): 1.2 µM
IC50 (B16): 5 µM
